Experimental findings from paper PMC117120 (BMC Biochemistry, 2002) are described below.

The structures appear in SMILES notation. Changes are numbered by the printed parent chain. “And” between values parts separate entries of the source, which are not always exact repeats. Equal values may be shown once.

Test [1] deals with T1, Y140A mutant mouse 5-HT3ASR (Mus musculus, UniProt P23979, Y141A).
T1 sequence (P23979 24-483 isoform P23979-2 Y141A): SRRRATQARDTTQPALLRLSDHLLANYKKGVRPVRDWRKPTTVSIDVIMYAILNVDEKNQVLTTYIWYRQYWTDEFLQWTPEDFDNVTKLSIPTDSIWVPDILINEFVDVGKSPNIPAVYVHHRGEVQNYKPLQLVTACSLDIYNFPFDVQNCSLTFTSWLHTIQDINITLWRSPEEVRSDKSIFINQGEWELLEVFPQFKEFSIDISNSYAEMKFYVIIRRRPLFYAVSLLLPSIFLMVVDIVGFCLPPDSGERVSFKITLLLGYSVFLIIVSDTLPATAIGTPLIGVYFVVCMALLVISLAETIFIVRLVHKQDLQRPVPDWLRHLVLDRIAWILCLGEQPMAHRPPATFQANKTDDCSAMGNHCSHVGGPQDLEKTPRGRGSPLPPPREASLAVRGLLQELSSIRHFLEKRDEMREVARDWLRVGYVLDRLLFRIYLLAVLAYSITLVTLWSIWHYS
Nature of the test: [^3H]granisetron saturation binding, Y140A receptor. Particulars: ± SE.

The target in test [2] is T2, V141A mutant mouse 5-HT3ASR (Mus musculus, UniProt P23979, V142A).
T2 sequence (P23979 24-483 isoform P23979-2 V142A): T1 sequence (P23979 24-483 isoform P23979-2 Y141A) with A118Y, V119A
Description: [^3H]granisetron saturation binding, V141A receptor. Particulars: ± SE.

The target in test [3] is T3, H145A mutant mouse 5-HT3ASR (Mus musculus, UniProt P23979, H146A).
T3 sequence (P23979 24-483 isoform P23979-2 H146A): T1 sequence (P23979 24-483 isoform P23979-2 Y141A) with A118Y, H123A
Description: [^3H]granisetron saturation binding, H145A receptor. As to conditions: ± SE.

In test [4] the target is T4, E148A mutant mouse 5-HT3ASR (Mus musculus, UniProt P23979, E149A).
T4 sequence (P23979 24-483 isoform P23979-2 E149A): T1 sequence (P23979 24-483 isoform P23979-2 Y141A) with A118Y, E126A
Nature of the test: [^3H]granisetron saturation binding, E148A receptor.

Test [5] deals with T5, K153A mutant mouse 5-HT3ASR (Mus musculus, UniProt P23979, K154A).
T5 sequence (P23979 24-483 isoform P23979-2 K154A): T1 sequence (P23979 24-483 isoform P23979-2 Y141A) with A118Y, K131A
Description: [^3H]granisetron saturation binding, K153A receptor. Particulars: ± SE.

On to `CN1C2CCCC1CC(NC(=O)c1nn(C)c3ccccc13)C2` (stereo not shown) [[^3H]granisetron], for which the Bmax in test [1] was 0.44 ± .08 pmol/mg protein; in test [2], 0.32 ± .04 pmol/mg protein; in test [3], 0.81 ± .07 pmol/mg protein; in test [4] (E148A, ± SE), 5.5 pmol/mg protein and 5.5 ± 1.2 pmol/mg protein; in test [5], 0.30 pmol/mg protein and 0.30 ± .08 pmol/mg protein. Moreover, the “Hill coefficient (n)” value was 1.3 ± 0.22 in test [2]; 1.38 ± 0.17 in test [3]; 0.93 ± 0.19 in test [4] (E148A, ± SE); 1.51 ± 0.17 in test [5]. Moreover, the “decrease in binding affinity (increased Kd), mutant vs wildtype” value in test [4] (E148A vs wildtype) worked out at 5.3 fold.
